The experiment addresses T1, full-length SARM1 (FL-SARM1) (Homo sapiens, UniProt Q6SZW1).
T1 sequence (Q6SZW1 28-724): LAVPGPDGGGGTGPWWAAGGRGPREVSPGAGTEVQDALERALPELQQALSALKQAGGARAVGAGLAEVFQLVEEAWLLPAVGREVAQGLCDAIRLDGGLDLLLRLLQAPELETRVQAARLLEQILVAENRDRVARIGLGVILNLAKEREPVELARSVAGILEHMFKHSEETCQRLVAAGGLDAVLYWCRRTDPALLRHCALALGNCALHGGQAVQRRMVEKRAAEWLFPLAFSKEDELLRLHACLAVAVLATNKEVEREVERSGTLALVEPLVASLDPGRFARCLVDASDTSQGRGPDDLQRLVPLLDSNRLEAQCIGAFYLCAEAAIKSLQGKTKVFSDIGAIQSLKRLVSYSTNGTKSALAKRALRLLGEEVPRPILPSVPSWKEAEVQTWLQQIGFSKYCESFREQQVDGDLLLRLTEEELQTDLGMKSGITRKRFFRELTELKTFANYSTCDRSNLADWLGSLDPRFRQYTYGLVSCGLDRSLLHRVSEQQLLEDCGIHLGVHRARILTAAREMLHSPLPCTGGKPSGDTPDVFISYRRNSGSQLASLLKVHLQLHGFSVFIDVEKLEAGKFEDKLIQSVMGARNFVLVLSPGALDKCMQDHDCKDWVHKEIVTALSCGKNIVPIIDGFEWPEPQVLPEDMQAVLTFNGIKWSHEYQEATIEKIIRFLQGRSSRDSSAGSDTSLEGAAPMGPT
Nature of the experiment: FL-SARM1 cellular lysate assay (NAD/NADH-Glo detection of remaining NAD+, NMN-activated).

Where [1] appears, read: Activity (μM) (IC50), 11 point curve.
[2] abbreviates: read-out: Activity (IC50 class), 11 point curve.
Setting [3] is: Activity (IC50 class), 11 point curve.

Where two headings read alike, the source gives them in different places. Bounds are passed on as bounds.

As a reminder, the IC50 is the concentration that inhibits the measured activity by half.

Procedure: Preparation of full-length SARM1 (FL-SARM1) lysate: HEK293T cells (ATCC: CRL-3216) were grown on 150 mm TC-treated dishes to 80-90% confluency in complete DMEM (DMEM (Thermo Fisher: 11965175) supplemented with 10% HI—FBS (VWR: 10802-772), 1× Pen/Strep (Thermo Fisher: 15140122), 1×NEAA (Thermo Fisher: 1140050), 1× glutamax (Thermo Fisher: 35050061), and 1 mM sodium pyruvate (Thermo Fisher: 11360070)) at 37° C. and 5% CO2. One hour prior to transfection, the media was replaced with fresh, 37° C. complete DMEM (20 mL per one 150 mm dish) supplemented with additional 10 mM glucose (Alfa Aesar AAJ60067EQE). Per one 150 mm dish, 30 μg FL-SARM1 (SEQ. ID. 1; cloned in-house) plasmid was dissolved in 1 mL DMEM at ambient temperature and were mixed by inverting the tube 8-10 times. 90 μL of GenJet™ in vitro DNA transfection reagent (Ver2) was dissolved in 1 mL DMEM at ambient temperature and were mixed by inverting the tube 8-10 times. The plasmid and transfection agent solutions were combined, mixed by 8-10 inversions and incubated for 10 minutes at ambient temperature. 2 mL of this transfection mixture was added to each dish containing HEK293T cells as prepared above followed by a gentle mixing of 4-5 horizontal rotations. The dishes were incubated at 37° C. and 5% CO2 for 24 h. The dishes were removed from the incubator, the medium was aspirated and the cells were scraped off using cell scrapers in ice-cold 1×PBS (5 mL/dish, Thermo Fisher Scientific 10010023). The collected cells were centrifuged at 300 g for 5 minutes at 4° C. The supernatant was aspirated and the pellet was frozen at −80° C. until needed. The cell pellet from 30 dishes was dissolved in 30 mL 1×PBS supplemented with 4 tablets of Complete, Mini EDTA-free protease inhibitor cocktail at 4° C. This mixture was sonicated on ice for 10 minutes at 50% amplitude with a 1 second on/1 second off interval using a Model 120 sonicator (Thermo Fisher Scientific, FB120110). The lysate was centrifuged at 16000 g for 10 minutes at 4° C.
To a white 384-well Proxiplate (PerkinElmer, PE-6008280) was added 50 nL/well of a DMSO solution containing test compounds followed by 7.5 μL/well of a 0.067 mg/mL solution of SARMi cellular lysate in reaction buffer (DPBS containing CHAPSO (0.1%) and fatty acid free BSA (0.032%)). The plate was centrifuged for 1 minute at 1000 RPM and then placed in an incubator at 23° C. for 15 minutes. To the wells were added 2.5 μL/well of a solution containing 40 M NAD^+ and 4 mM nicotinamide mononucleotide (NMN) in reaction buffer. The plate was centrifuged for 1 min at 1000 RPM, the plate was sealed and placed in an incubator at 23° C. for 3.5 hours before adding 3.5 μL/well of NAD/NADH-Glo™ solution (preparation as described by Promega using the extended detection protocol). The plate was centrifuged for 1 minute at 1000 RPM and then incubated at 23° C. for 20 minutes. 1 μL/well of a 3.625 mM solution of menadione in DMSO was added and the plate was centrifuged for 1 minute at 1000 RPM. Relative light units (RLU) were recorded using an Envision plate reader at a height of 6.5 mm.
IC50 values were calculated from an 11 point curve using ½ log dilutions using a four-parameter logistic regression curve fit.

Turning to `O=C(Nc1ccc(C(F)(F)F)c(-c2ncc(F)cn2)c1)N1C2CCCCC1C2` [Example 311, N-(3-(5-fluoropyrimidin-2-yl)-4-(trifluoromethyl)phenyl)-7-azabicyclo[4.1.1]octane-7-carboxamide], the IC50 runs as follows: under setting [1], 0.1 µM; under setting [2], 0.0001 to 1 µM.

With `O=C(Nc1ccc(C(F)(F)F)c(-c2ncc(F)cn2)c1)N1CCCCCC1` [Example 313, N-(3-(5-fluoropyrimidin-2-yl)-4-(trifluoromethyl)phenyl) azepane-1-carboxamide], the IC50 by setting is: under setting [1], 0.8 µM; under setting [2], 0.0001 to 1 µM.

With `C[C@@H]1CC2C[C@H](C1)N2C(=O)Nc1ccc(Br)c(-c2nccnn2)c1` [Example 315], the concentration for half-maximal inhibition (IC50) was 0.08 µM under setting [1] and 0.0001 to 1 µM under setting [2].

Consider `Cc1ccc(NC(=O)[C@H]2CC[C@@H](C)N2c2ccc(F)cn2)cc1-c1ncc(F)cn1` [Example 316], for which the IC50 was 1 to 10 µM under setting [3] and 1.7 µM under setting [1].

For the compound `Cc1ccc(NC(=O)[C@H]2C[C@@H](c3ccccc3)CN2c2ncccn2)cc1-c1ncc(F)cn1` [Example 319], the IC50 is 1 to 10 µM under setting [3] and 6.7 µM under setting [1].

As for `Cc1cnc(-c2cc(NC(=O)N3[C@@H]4C[C@@H](C)C[C@H]3C4)c(F)cc2Cl)nn1` [Example 320], the IC50 by setting is: under setting [1], 0.6 µM; under setting [2], 0.0001 to 1 µM.

As for `CC(=O)N1C[C@H](c2ccccc2)C[C@@H]1C(=O)Nc1ccc(C)c(-c2ncc(F)cn2)c1` [Example 321], the IC50 by setting is: under setting [3], greater than 10 µM; under setting [1], 24 µM.

Turning to `Cc1ccc(NC(=O)[C@H]2[C@@H]3CC[C@@H](C3)N2c2ncccn2)cc1-c1ncc(F)cn1` [Example 322], the concentration for half-maximal inhibition (IC50) is, setting by setting: under setting [3], greater than 10 µM; under setting [1], 13 µM.

In the case of `C[C@@H]1C[C@@H]2C[C@H](C1)N2C(=O)Nc1cc(-c2nccnn2)c(Cl)cc1F` [Example 323], the half-inhibitory concentration (IC50) is, setting by setting: under setting [1], 0.2 µM; under setting [2], 0.0001 to 1 µM.

On to `CO[C@@H]1C[C@H](C(=O)Nc2ccc(C)c(-c3ncc(F)cn3)c2)N(c2ncccn2)C1` [Example 324], for which the 50% inhibitory concentration (IC50) under setting [3] was greater than 10 µM and the half-inhibitory concentration (IC50) under setting [1] is 17 µM.

As to `Cc1ccc(NC(=O)[C@@H]2C[C@@H]3C[C@@H]3C2)cc1-c1ncc(F)cn1` [Example 325], the IC50 was 1 to 10 µM under setting [3] and 1.2 µM under setting [1].

Consider `Cc1ccc(NC(=O)N2C3CCCC2C3)cc1-c1ncc(F)c(C)n1` [Example 326], for which the IC50 is 1 to 10 µM under setting [3] and 1.4 µM under setting [1].

For `Cc1ccc(NC(=O)OCC2CC2)cc1-c1ncccn1` [Example 328], the IC50 runs as follows: under setting [3], greater than 10 µM; under setting [1], 31 µM.

(Values after patent US20250171462A1 (NICO Therapeutics, Inc., priority 2022, published 2025).)
